Consider 20 compounds from patent publication US9133158B2, “Bicyclic dihydroisoquinoline-1-one derivatives” (Hoffmann-La Roche Inc., priority 2011, dated 2015).

Assay [1] addresses T1, human CYP11B2 (Homo sapiens, UniProt P19099).
T1 construct: expressed in transfected cells
T1 sequence (P19099 25-503): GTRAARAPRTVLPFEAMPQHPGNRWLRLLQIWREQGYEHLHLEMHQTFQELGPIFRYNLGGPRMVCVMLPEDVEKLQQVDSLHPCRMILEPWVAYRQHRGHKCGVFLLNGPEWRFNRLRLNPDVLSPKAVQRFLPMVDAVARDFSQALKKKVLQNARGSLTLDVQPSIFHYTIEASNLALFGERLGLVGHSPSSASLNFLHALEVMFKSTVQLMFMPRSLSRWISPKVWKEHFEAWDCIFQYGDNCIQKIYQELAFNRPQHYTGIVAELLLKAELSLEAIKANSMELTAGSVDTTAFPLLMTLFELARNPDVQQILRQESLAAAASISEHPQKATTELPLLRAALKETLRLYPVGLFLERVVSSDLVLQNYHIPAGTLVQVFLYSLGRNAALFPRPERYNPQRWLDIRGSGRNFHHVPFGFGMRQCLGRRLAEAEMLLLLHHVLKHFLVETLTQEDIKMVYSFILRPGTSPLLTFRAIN
Description: G-402 cellular enzyme assay, human CYP11B2 (aldosterone release, HTRF). It counts as cell-based. To be noted: G-402 cells, 1 μM Deoxycorticosterone. The method in brief:
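Supernatant steroid product measured by HTRF (aldosterone for CYP11B2, cortisol for CYP11B1) after 16 h exposure of stably transfected G-402 cells to compound. Substrates were 1 μM deoxycorticosterone and 1 μM deoxycortisol, respectively; EC50 derived from a four-parameter MMF curve fit.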
(In TR-FRET formats the signal depends on donor and acceptor labels being close together.)

The target of assay [2] is T2, human CYP11B1 (Homo sapiens, UniProt P15538).
T2 construct: expressed in transfected cells
T2 sequence (P15538 25-503): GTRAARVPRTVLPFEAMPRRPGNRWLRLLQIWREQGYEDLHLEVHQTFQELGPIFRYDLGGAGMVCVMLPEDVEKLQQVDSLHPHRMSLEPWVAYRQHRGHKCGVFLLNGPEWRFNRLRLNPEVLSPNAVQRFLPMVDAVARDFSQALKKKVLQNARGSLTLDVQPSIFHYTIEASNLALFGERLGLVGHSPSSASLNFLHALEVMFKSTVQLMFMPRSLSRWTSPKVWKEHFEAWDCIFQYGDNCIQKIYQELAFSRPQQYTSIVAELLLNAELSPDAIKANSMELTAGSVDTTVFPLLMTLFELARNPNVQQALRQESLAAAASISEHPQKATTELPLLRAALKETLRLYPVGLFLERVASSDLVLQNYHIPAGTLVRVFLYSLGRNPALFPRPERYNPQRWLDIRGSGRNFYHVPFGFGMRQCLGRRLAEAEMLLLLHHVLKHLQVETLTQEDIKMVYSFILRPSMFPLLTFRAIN
As to the kind of experiment: G-402 cellular enzyme assay, human CYP11B1 (cortisol release, HTRF). It counts as cell-based. To be noted: G-402 cells, 1 μM Deoxycortisol. From the text:
Herein we identified the use of the G-402 cell line as a host cell to ectopically express (transiently or stably) enzymes of the CYP11 family. Specifically we developed stable G-402 cells expressing ectopically human CYP11B1, human CYP11B2, human CYP11A1, cynmolgus CYP11B1 or cynomolgus CYP11B2 enzyme activity. Importantly the identified cell line G-402 expresses co-factors (adrenodoxin and adrenodoxin reductase) important for the activity of the CYP11 family and no relevant enzyme activity of the CYP11 family (in comparison to H295R cells) was detected in these cells. Therefore the G-402 cell line is uniquely suited as a host cell for the ectopic expression of enzymes from the CYP11 family.
G-402 cells can be obtained from ATCC(CRL-1440) and were originally derived from a renal leiomyoblastoma.
The expression plasmids contain the ORF for either human/cyno CYP11B1 or CYP11B2 under the control of a suitable promoter (CMV-promoter) and a suitable resistance marker (neomycin). Using standard techniques the expression plasmid is transfected into G-402 cells and these cells are then selected for expressing the given resistance markers. Individual cell-clones are then selected and assessed for displaying the desired enzymatic activity using 11-Deoxycorticosterone (Cyp11B2) or 11-Deoxycortisol (Cyp11B1) as a substrate.
G-402 cells expressing CYP11 constructs were established as described above and maintained in McCoy's 5a Medium Modified, ATCC Catalog No. 30-2007 containing 10% FCS and 400 μg/ml G418 (Geneticin) at 37° C. under an atmosphere of 5% CO2/95% air.
Cellular enzyme assays were performed in DMEM/F12 medium containing 2.5% charcoal treated FCS and appropriate concentration of substrate (0.3-10 uM 11-Deoxycorticosterone, 11-Deoxycortisol or Corticosterone). For assaying enzymatic activity, cells were plated onto 96 well plates and incubated for 16 h. An aliquot of the supernatant is then transferred and analyzed for the concentration of the expected product (Aldosterone for CYP11B2; Cortisol for CYP11B1). The concentrations of these steroids can be determined using HTRF assays from CisBio analyzing either Aldosterone or Cortisol.
Inhibition of the release of produced steroids can be used as a measure of the respective enzyme inhibition by test compounds added during the cellular enzyme assay. The dose dependent inhibition of enzymatic activity by a compound is calculated by means of plotting added inhibitor concentrations (x-axes) vs. measured steroid/product level (y-axes). The inhibition is then calculated by fitting the following 4-parameter sigmoidal function (Morgan-Mercer-Flodin (MMF) model) to the raw data points using the least squares method:
[formula] wherein, A is the maximum y value, B is the EC50 factor determined using XLFit, C is the minimum y value and D is the slope value.
EC50 values for compounds claimed herein were tested with the G402-based assay system described. Cyp11B2 enzyme activity was tested in presence of 1 μM Deoxycorticosterone and variable amounts of inhibitors; Cyp11B1 enzyme activity was tested in presence of 1 μM Deoxycortisol and variable amounts of inhibitors.

With `O=C1c2ccc(Cl)cc2CCN1c1cncc(-c2cc(F)ccc2F)c1` [Example 235, 6-Chloro-2-[5-(2,5-difluoro-phenyl)-pyridin-3-yl]-3,4-dihydro-2H-isoquinolin-1-one], the EC50 (as a rule, the concentration that produces a half-maximal response) was 22.7 nM in assay [1] and 221 nM in assay [2].
Taken in the same sequence, the figures for `Cn1nccc1-c1cncc(N2CCc3cc(Cl)ccc3C2=O)c1` [Example 238, 6-Chloro-2-[5-(2-methyl-2H-pyrazol-3-yl)-pyridin-3-yl]-3,4-dihydro-2H-isoquinolin-1-one] were 104 nM and 5990 nM.
Take `CC1(C)c2cc(F)ccc2C(=O)N1c1cncc(CNS(C)(=O)=O)c1` [Example 403, N-[5-(6-Fluoro-1,1-dimethyl-3-oxo-1,3-dihydro-isoindol-2-yl)-pyridin-3-ylmethyl]-methane-sulfonamide]: the EC50 stood at 31.7 nM in assay [1] and 1930 nM in assay [2].
On the same counts, the results for `O=C1c2ccc(Cl)cc2CCN1c1cncc(C(O)c2cc(F)cc(F)c2)c1` (stereo not shown) [Example 32, 6-Chloro-2-{5-[(3,5-difluoro-phenyl)-hydroxy-methyl]-pyridin-3-yl}-3,4-dihydro-2H-isoquinolin-1-one] are 46.8 nM and 514 nM.
In the case of `O=C1c2ccc(Cl)cc2CCN1c1cncc(-c2cccc(C(F)(F)F)c2)c1` [Example 236, 6-Chloro-2-[5-(3-trifluoromethyl-phenyl)-pyridin-3-yl]-3,4-dihydro-2H-isoquinolin-1-one], the EC50 in assay [1] was found to be 133 nM; in assay [2], 4390 nM.
Take `CCC(=O)N[C@@H]1CCCc2c1cncc2N1C(=O)c2cc(Cl)ccc2[C@H]1CC` (single isomer, unassigned) [Example 312, N-[(R or S)-4-((R or S)-5-Chloro-1-ethyl-3-oxo-1,3-dihydro-isoindol-2-yl)-5,6,7,8-tetrahydro-isoquinolin-8-yl]-propionamide]: the EC50 in assay [1] was found to be 48.2 nM; in assay [2], 4010 nM.
On the same counts, the results for `CCS(=O)(=O)NC1CCCc2c1cncc2N1Cc2cc(Cl)ccc2C1=O` (single isomer, unassigned; (+)) [Example 316, (+)-Ethanesulfonic acid [(R or S)-4-(5-chloro-1-oxo-1,3-dihydro-isoindol-2-yl)-5,6,7,8-tetrahydro-isoquinolin-8-yl]-amide] are 40.2 nM and 1830 nM.
Consider `COc1ccc2c(n1)CCN(c1cccnc1)C2=O` [Example 98, 2-Methoxy-6-pyridin-3-yl-7,8-dihydro-6H-[1,6]naphthyridin-5-one], for which the EC50 stood at 227 nM in assay [1] and 6830 nM in assay [2].
On the same counts, the results for `Cn1cc(Cc2cncc(N3CCc4cc(Cl)ccc4C3=O)c2)cn1` [Example 209, 6-Chloro-2-[5-(1-methyl-1H-pyrazol-4-ylmethyl)-pyridin-3-yl]-3,4-dihydro-2H-isoquinolin-1-one] are 0.9 nM and 14.7 nM.
As for `O=C1c2ccc(Cl)cc2CCN1c1cncc(-c2cccc(F)c2)c1` [Example 231, 6-Chloro-2-[5-(3-fluoro-phenyl)-pyridin-3-yl]-3,4-dihydro-2H-isoquinolin-1-one], the figures for the EC50 in assay [1] and in assay [2] were 23.3 nM and 469 nM, respectively.
Turning to `O=C1c2ccc(Cl)cc2CCN1c1cncc(COc2ccccc2F)c1` [Example 199, 6-Chloro-2-[5-(2-fluoro-phenoxymethyl)-pyridin-3-yl]-3,4-dihydro-2H-isoquinolin-1-one], the EC50 in assay [1] is 104 nM; in assay [2] it was 282 nM.
Taken in the same sequence, the figures for `CCC1c2cc(Cl)ccc2C(=O)N1c1cncc2c1CCCC2NS(C)(=O)=O` (mixture of isomers) [Example 346, N-[4-(5-Chloro-3-ethyl-1-oxo-1,3-dihydro-isoindol-2-yl)-5,6,7,8-tetrahydro-isoquinolin-8-yl]-methanesulfonamide] were 26.3 nM and 2570 nM.
With `O=C1c2ccc(Cl)cc2C2(CC2)N1c1cncc(CNc2cc[nH]n2)c1` [Example 386, 6′-Chloro-2′-{5-[(1H-pyrazol-3-ylamino)methyl]pyridin-3-yl}spiro [cyclopropane-1,1′-isoindol]-3′(2′H)-one], the EC50 in assay [1] stood at 6 nM; in assay [2], 418 nM.
On to `COC[C@@H]1CCCN1c1cncc(N2CCc3cc(Cl)ccc3C2=O)c1` [Example 49, 6-Chloro-2-[5-((S)-2-methoxymethyl-pyrrolidin-1-yl)-pyridin-3-yl]-3,4-dihydro-2H-isoquinolin-1-one], for which the EC50 in assay [1] is 49.6 nM; in assay [2], 188 nM.
As for `O=C(Nc1ccccc1)c1cncc(N2CCc3cc(Cl)ccc3C2=O)c1` [Example 46, 5-(6-Chloro-1-oxo-3,4-dihydro-1H-isoquinolin-2-yl)-N-phenyl-nicotinamide], the EC50 was determined as 698 nM in assay [1] and 13900 nM in assay [2].
Taken in the same sequence, the figures for `CCC1c2cc(Cl)ccc2C(=O)N1c1cccnc1` (stereo not shown) [Example 125, 5-Chloro-3-ethyl-2-pyridin-3-yl-2,3-dihydro-isoindol-1-one] were 121 nM and 3340 nM.
Taken in the same sequence, the figures for `CC(=O)N1CC[C@H](Oc2cncc(N3C(=O)c4ccc(Cl)cc4C3(C)C)c2)C1` [Example 443, 2-[5-((S)-1-Acetyl-pyrrolidin-3-yloxy)-pyridin-3-yl]-5-chloro-3,3-dimethyl-2,3-dihydro-isoindol-1-one] were 9 nM and 1170 nM.
Taken in the same sequence, the figures for `CCC(=O)N[C@H]1CCCc2c1cncc2N1C(=O)c2ccc(Cl)cc2[C@H]1C` (single isomer, unassigned) [Example 360, N-[(S or R)-4-((R or S)-5-Chloro-3-methyl-1-oxo-1,3-dihydro-isoindol-2-yl)-5,6,7,8-tetrahydro-isoquinolin-8-yl]-propionamide] were 853 nM and 16100 nM.
As for `COCc1c(F)cncc1N1CCc2cc(Cl)ccc2C1=O` [Example 75, 6-Chloro-2-(5-fluoro-4-methoxymethyl-pyridin-3-yl)-3,4-dihydro-2H-isoquinolin-1-one], the EC50 in assay [1] came to 166 nM; in assay [2], 2760 nM.
Taken in the same sequence, the figures for `CCC(=O)NC1CCc2c1cncc2N1Cc2cc(Cl)ccc2C1=O` (single isomer, unassigned) [Example 339, N-[(R or S)-4-(5-Chloro-1-oxo-1,3-dihydro-isoindol-2-yl)-6,7-dihydro-5H-[2]pyrindin-7-yl]-propionamide] were 54.5 nM and 7990 nM.
